The values below are quoted from earlier work in PubChem BioAssay AID1259409 (Chemical Carcinogenesis Research Information System (CCRIS), 2018).

This series relates to rodent chemically induced tumor inhibition, incidence and multiplicity. Description: CCRIS tumor inhibitor studies.

In the case of `COc1ccc(-c2cc(=O)c3c(OC)c(OC)c(OC)c(OC)c3o2)cc1OC`, the outcome by setting is: (Carcinogen: AZOXYMETHANE [25843-45-2], Dose [Inhibitor]: 0.01% IN DIET FOR 34 WK, 1 WK AFTER LAST AZOXYMETHANE INJECTION (STUDY DURATION: 36 WK), Route [Inhibitor]: DIET, Species: RAT, Strain/Sex: F344/MALE, Target Tissue: Type of Lesion: LARGE INTESTINE: ADENOCARCINOMA, Dose [Carcinogen]: 20 MG/KG 1X A WK FOR 2 WK) 67, 55, 18%, not significant; (Carcinogen: AZOXYMETHANE [25843-45-2], Dose [Inhibitor]: 0.01% IN DIET FOR 34 WK, 1 WK AFTER LAST AZOXYMETHANE INJECTION (STUDY DURATION: 36 WK), Route [Inhibitor]: DIET, Species: RAT, Strain/Sex: F344/MALE, Target Tissue: Type of Lesion: LARGE INTESTINE: ADENOMA, Dose [Carcinogen]: 20 MG/KG 1X A WK FOR 2 WK) 33, 45, -36%; (Carcinogen: AZOXYMETHANE [25843-45-2], Dose [Inhibitor]: 0.05% IN DIET FOR 34 WK, 1 WK AFTER LAST AZOXYMETHANE INJECTION (STUDY DURATION: 36 WK), Route [Inhibitor]: DIET, Species: RAT, Strain/Sex: F344/MALE, Target Tissue: Type of Lesion: LARGE INTESTINE: ADENOCARCINOMA, Dose [Carcinogen]: 20 MG/KG 1X A WK FOR 2 WK) 67, 35, 48%, p<0.05; (Carcinogen: AZOXYMETHANE [25843-45-2], Dose [Inhibitor]: 0.05% IN DIET FOR 34 WK, 1 WK AFTER LAST AZOXYMETHANE INJECTION (STUDY DURATION: 36 WK), Route [Inhibitor]: DIET, Species: RAT, Strain/Sex: F344/MALE, Target Tissue: Type of Lesion: LARGE INTESTINE: ADENOMA, Dose [Carcinogen]: 20 MG/KG 1X A WK FOR 2 WK) 33, 50, -52%.

For the molecule `CCC[Se]C#N`, the “tumour outcome (control, treated, inhibition, significance)” value (Carcinogen: 7,12-DIMETHYLBENZ[A]ANTHRACENE, 57-97-6, Dose [Inhibitor]: 0.1, 2 PPM (SELENIUM) IN DIET FOR 3 WK BEGINNING 2 WK PRIOR TO CARCINOGEN DOSE (STUDY DURATION: 25 WK), Route [Inhibitor]: ORAL, Species: RAT, Strain/Sex: SPRAGUE-DAWLEY/FEMALE, Target Tissue: Type of Lesion: MAMMARY GLAND: TUMOR, Dose [Carcinogen]: 10 MG ONCE, Promoter: NONE USED) was 25/30 (83%), 13/30 (43%), 48%, p<0.05.

On to `CC(=O)Oc1c(C)c(C)c2c(c1C)CCC(C)(CCCC(C)CCCC(C)CCCC(C)C)O2` (stereo not drawn), for which the “tumour outcome (control, treated, inhibition, significance)” value was 28/30 (93%), 27/30 (90%), 3%, not significant (Carcinogen: 7,12-DIMETHYLBENZ[A]ANTHRACENE, 57-97-6, Dose [Inhibitor]: 1000 MG/KG IN 20% CORN OIL DIET DAILY STARTING 2 WK BEFORE CARCINOGEN TREATMENT AND CONTINUING FOR DURATION OF STUDY (ST, Route [Inhibitor]: ORAL, Species: RAT, Strain/Sex: SPRAGUE-DAWLEY/FEMALE, Target Tissue: Type of Lesion: MAMMARY GLAND: ADENOCARCINOMA, Dose [Carcinogen]: 10 MG ONCE AT AGE 50 D); 67%, 46%, 31%, not calculated (Carcinogen: UV-B IRRADIATION, Dose [Inhibitor]: 25, 100 UG/KG IN DIET FOR DURATION OF STUDY BEGINNING 3 WK PRIOR TO IRRADIATION (STUDY DURATION: 40 WK), Route [Inhibitor]: ORAL, Species: MOUSE, Strain/Sex: C3H/HEN/FEMALE, Target Tissue: Type of Lesion: SKIN: TUMOR, Dose [Carcinogen]: 6.4 J/M2/SEC 30 MIN/D 5 D/WK FOR 13 WK , IRRADIATION DISCONTINUED FOR 3 WK DUE TO TOXICITY THEN IT WAS RESUMED FOR 2 WK, Promoter: NONE USED); 67%, 19%, 72%, not calculated (Carcinogen: UV-B IRRADIATION, Dose [Inhibitor]: 25, 200 UG/KG IN DIET FOR DURATION OF STUDY BEGINNING 3 WK PRIOR TO IRRADIATION (STUDY DURATION: 40 WK), Route [Inhibitor]: ORAL, Species: MOUSE, Strain/Sex: C3H/HEN/FEMALE, Target Tissue: Type of Lesion: SKIN: TUMOR, Dose [Carcinogen]: 6.4 J/M2/SEC 30 MIN/D 5 D/WK FOR 13 WK, IRRADIATION DISCONTINUED FOR 3 WK DUE TO TOXICITY THEN IT WAS RESUMED FOR 2 WK, Promoter: NONE USED).

Take `CC(C)C(NC(=O)[C@@H]1CCCN1C(=O)[C@@H](NC(=O)c1ccc(C(=O)NS(=O)(=O)c2ccc(Br)cc2)cc1)C(C)C)C(=O)C(F)(F)F` (stereo partly drawn): the “tumour outcome (control, treated, inhibition, significance)” value (Carcinogen: UV-B IRRADIATION, Dose [Inhibitor]: 0, 125 UG IN DMSO ADMINISTERED IMMEDIATELY PRIOR TO UV-B IRRADIATION AND 4 AND 24 HR POST IRRADIATION, CYCLE REPEATED 3/, Route [Inhibitor]: SUBCUTANEOUS, Species: MOUSE, Strain/Sex: SKH-1/FEMALE, Target Tissue: Type of Lesion: SKIN: CARCINOMA, Dose [Carcinogen]: 0.09 J/CM2 3/WK, Promoter: NONE USED) was 5/5 (100%), 2/5 (40%), 60%, not calculated and the “tumour outcome (control, treated, inhibition, significance)” value (Carcinogen: UV-B IRRADIATION, Dose [Inhibitor]: 0, 125 UG IN DMSO ADMINISTERED IMMEDIATELY PRIOR TO UV-B IRRADIATION AND 4 AND 24 HR POST IRRADIATION, CYCLE REPEATED 3/, Route [Inhibitor]: SUBCUTANEOUS, Species: MOUSE, Strain/Sex: SKH-1/FEMALE, Target Tissue: Type of Lesion: SKIN: PAPILLOMA, Dose [Carcinogen]: 0.09 J/CM2 3/WK, Promoter: NONE USED) is reported as 5/5 (100%), 3/5 (60%), 40%, not calculated.

In the case of `[O]=[W](=[O])([OH])[OH]`, the outcome (Carcinogen: N-NITROSO-N-METHYLUREA, 684-93-5, Dose [Inhibitor]: 0, 150 PPM IN DRINKING WATER BEGINNING AT 35 D OF AGE (STUDY DURATION:198 D), Route [Inhibitor]: ORAL, Species: RAT, Strain/Sex: SPRAGUE-DAWLEY/FEMALE, Target Tissue: Type of Lesion: MAMMARY GLAND: CARCINOMA, Dose [Carcinogen]: 5 MG/100 G BW ONCE AT 50 D OF AGE, Promoter: NONE USED) is 50%, 79%, -58%, p<0.05 at 125 d; 91%, 96%, -5%, not calculated at 198 d. In addition, the “tumour outcome (control, treated, inhibition, significance)” value is 80%, 80%, 0%, not significant (Carcinogen: N-NITROSOSARCOSINE ETHYL ESTER, 1130-69-4, Dose [Inhibitor]: 100 PPM IN DRINKING WATER DAILY FOR 19 WK STARTING 3 WK PRIOR TO START OF CARCINOGEN TREATMENT (STUDY DURATION: 19 WK), Route [Inhibitor]: ORAL, Species: RAT, Strain/Sex: SPRAGUE-DAWLEY/MALE, Target Tissue: Type of Lesion: ESOPHAGUS: CARCINOMA, Dose [Carcinogen]: 10 ML/KG BW 2/WK FOR 8 WK, Promoter: NONE USED); 70%, 80%, -14%, not significant (Carcinogen: N-NITROSOSARCOSINE ETHYL ESTER, 1130-69-4, Dose [Inhibitor]: 100 PPM IN DRINKING WATER DAILY FOR 19 WK STARTING 3 WK PRIOR TO START OF CARCINOGEN TREATMENT (STUDY DURATION: 19 WK), Route [Inhibitor]: ORAL, Species: RAT, Strain/Sex: SPRAGUE-DAWLEY/MALE, Target Tissue: Type of Lesion: FORESTOMACH: CARCINOMA, Dose [Carcinogen]: 10 ML/KG BW 2/WK FOR 8 WK, Promoter: NONE USED); 91%, 86%, 5%, not significant (Carcinogen: N-NITROSOSARCOSINE ETHYL ESTER, 1130-69-4, Dose [Inhibitor]: 100 PPM IN DRINKING WATER DAILY FOR 30 WK STARTING 3 WK PRIOR TO START OF CARCINOGEN TREATMENT (STUDY DURATION: 30 WK), Route [Inhibitor]: ORAL, Species: RAT, Strain/Sex: SPRAGUE-DAWLEY/MALE, Target Tissue: Type of Lesion: ESOPHAGUS: CARCINOMA, Dose [Carcinogen]: 10 ML/KG BW 2/WK FOR 8 WK, Promoter: NONE USED); 100%, 100%, 0%, not significant (Carcinogen: N-NITROSOSARCOSINE ETHYL ESTER, 1130-69-4, Dose [Inhibitor]: 100 PPM IN DRINKING WATER DAILY FOR 30 WK STARTING 3 WK PRIOR TO START OF CARCINOGEN TREATMENT (STUDY DURATION: 30 WK), Route [Inhibitor]: ORAL, Species: RAT, Strain/Sex: SPRAGUE-DAWLEY/MALE, Target Tissue: Type of Lesion: FORESTOMACH: CARCINOMA, Dose [Carcinogen]: 10 ML/KG BW 2/WK FOR 8 WK, Promoter: NONE USED).

Regarding `COc1cc(/C=C/C(=O)OCCc2ccccc2)ccc1O`, the “tumour outcome (control, treated, inhibition, significance)” value is on record as 81%, 43%, 47%, p<0.002 (Carcinogen: AZOXYMETHANE, 25843-45-2, Dose [Inhibitor]: 0, 750 PPM IN DIET FOR 56 WK BEGINNING 2 WK PRIOR TO CARCINOGEN TREATMENT (STUDY DURATION: 56 WK), Route [Inhibitor]: ORAL, Species: RAT, Strain/Sex: F344/MALE, Target Tissue: Type of Lesion: COLON: ADENOCARCINOMA, Dose [Carcinogen]: 15 MG/KG BW 1/WK FOR 2 WK, Promoter: NONE USED); 25%, 0%, 100%, p<0.02 (Carcinogen: AZOXYMETHANE, 25843-45-2, Dose [Inhibitor]: 0, 750 PPM IN DIET FOR 56 WK BEGINNING 2 WK PRIOR TO CARCINOGEN TREATMENT (STUDY DURATION: 56 WK), Route [Inhibitor]: ORAL, Species: RAT, Strain/Sex: F344/MALE, Target Tissue: Type of Lesion: EAR DUCT: TUMOR, Dose [Carcinogen]: 15 MG/KG BW 1/WK FOR 2 WK, Promoter: NONE USED); 16%, 10%, 38%, not significant (Carcinogen: AZOXYMETHANE, 25843-45-2, Dose [Inhibitor]: 0, 750 PPM IN DIET FOR 56 WK BEGINNING 2 WK PRIOR TO CARCINOGEN TREATMENT (STUDY DURATION: 56 WK), Route [Inhibitor]: ORAL, Species: RAT, Strain/Sex: F344/MALE, Target Tissue: Type of Lesion: SMALL INTESTINE: INVASIVE ADENOCARCINOMA, Dose [Carcinogen]: 15 MG/KG BW 1/WK FOR 2 WK, Promoter: NONE USED).
